Measured values published in patent US20140235545A1, “The use of HCV immunogenic peptide or a derivative thereof in the prevention or treatment of arthritis” (priority 2011, published 2014).
No end group written: not given here.

Tested on: adjuvant arthritis (Freund's complete adjuvant)
Experiment: Protective effect of peptide A on adjuvant arthritis in rats
Format: in vivo, SD rats
Details: for ankle joint swelling value: X±SD; for ankle joint swelling value / Lesion scoring ( X ± SD), joint lesion severity: n=10; for inhibition rate of ankle joint swelling: vs model group; for Lesion scoring ( X ± SD), joint lesion severity: 32nd day, left rear ankle joint histopathology, lower score = milder
Description: SPF-level SD rats, each weighting 180 g-220 g, with male and female each in half, provided by Experimental Animal Center of Chinese Academy of Military Medical.
Peptide A (which was prepared with the same procedure as in Embodiment 1). It was to be dissolved in physiological saline when used.
SD rats, with male and female each in half, were randomly divided into five groups with 10 rats in each group, respectively were model group (employing physiological saline and Freund's complete adjuvant); control group (employing the same volume of physiological saline as the model group); peptide A high, medium and low dose groups (employing Freund's complete adjuvant and peptide A, wherein each group was given different doses of peptide A, respectively were 174 μg/kg·d, 87 μg/kg·d and 43.5 μg/kg·d, peptide A was dissolved in physiological saline to form peptide A solution with desired concentration). Peptide A solution in each dose was administered by subcutaneous injection, 0.1 ml of peptide A solution per 100 g body weight of rats. The control group employed the same amount of physiological saline as the peptide A solution (0.1 ml of physiological saline per 100 g body weight of rats).
Each group rats were administered according to the following manner. These rats were normally fed every day during the administration.
On the 1st day (including this day), except the control group, for rats of other groups (the model group and the peptide A high, medium and low dose groups), 0.5 ml of Freund's complete adjuvant was subcutaneously injected into plantar skin of right rear foot of every rat. Then, they were subcutaneously injected with 0.05 ml of Freund's complete adjuvant for one time every other day, a total of 15 times.
From the 2nd day (including this day), the rats of peptide A high, medium and low dose groups each were administered with corresponding the dose of peptide A. Then, they were subcutaneously injected with the dose the amount of peptide A for one time every other day, a total of 15 times. At the same time, the rats of the control group and the model group were subcutaneously injected the same amount of physiological saline as that of the peptide A for the high, medium and low dose groups for one time every other day, a total of 15 times.
Measurement for the experimental results was conducted as follows. Firstly, before administration to rats of each group, left rear ankle circumference […] of each rat was measured by a flexible rule as a base value, and then circumference of left rear ankle with inflammation of each rat was measured at the 4th, 8th, 12th, 16th, 20th, 24th, 28th, and 32nd day, respectively. Swelling value obtained by circumference after inflammation minus circumference before inflammation was used to observe changes of primary and secondary inflammation of Freund's complete adjuvant-induced rats.
Secondly, at the 32nd day, rats of each group were killed, and their left rear foot ankle joints ware quickly taken out, fixed in 10% formalin and then embedded in paraffin after decalcification, sectioned and stained with HE. The proliferation of synovial tissue, degeneration of covering epithelial cells (synovial cells), congestion of interstitial substance, inflammatory cell infiltration, damage or fibrosis of arthrodial cartilage, and inflammatory cell infiltration or fibrosis of subcutaneous tissue around the joint, were observed. According to severity of joint lesions, the lesions were scored as “1 score (few or mild lesion)”, “2 scores (moderate or medium lesion)”, “3 scores (large or severe lesion)”, and “4 scores (very severe lesion)”. Very mild lesion was scored as “0.5”, and no lesion tissue was scored as “0”. Accumulate all scores to obtain a total score for one group, and then calculate average score ( X±SD) for each animal in each group. The lower score indicates the milder grade of the lesion. […]

[1] = high dose 174 μg/kg·d s.c., the 4th day
[2] = high dose 174 μg/kg·d s.c., the 8th day
[3] = high dose 174 μg/kg·d s.c., the 12th day
[4] = high dose 174 μg/kg·d s.c., the 16th day
[5] = high dose 174 μg/kg·d s.c., the 20th day
[6] = high dose 174 μg/kg·d s.c., the 24th day
[7] = high dose 174 μg/kg·d s.c., the 28th day
[8] = high dose 174 μg/kg·d s.c., the 32nd day
[9] = low dose 43.5 μg/kg·d s.c., the 4th day
[10] = low dose 43.5 μg/kg·d s.c., the 8th day
[11] = low dose 43.5 μg/kg·d s.c., the 12th day
[12] = low dose 43.5 μg/kg·d s.c., the 16th day
[13] = low dose 43.5 μg/kg·d s.c., the 20th day
[14] = low dose 43.5 μg/kg·d s.c., the 24th day
[15] = low dose 43.5 μg/kg·d s.c., the 28th day
[16] = low dose 43.5 μg/kg·d s.c., the 32nd day
[17] = medium dose 87 μg/kg·d s.c., the 4th day
[18] = medium dose 87 μg/kg·d s.c., the 8th day
[19] = medium dose 87 μg/kg·d s.c., the 12th day
[20] = medium dose 87 μg/kg·d s.c., the 16th day
[21] = medium dose 87 μg/kg·d s.c., the 20th day
[22] = medium dose 87 μg/kg·d s.c., the 24th day
[23] = medium dose 87 μg/kg·d s.c., the 28th day
[24] = medium dose 87 μg/kg·d s.c., the 32nd day

GQTYTSG [Peptide A]
arthritis lesion (histopathology) after administration (all dose groups, effect in descending order high, medium, low): reduced in different degrees
ankle joint swelling value [1]: 8.5 ± 1.5 mm
inhibition rate of ankle joint swelling [1]: (17.5%)
ankle joint swelling value [2]: 10.2 ± 1.7 mm
inhibition rate of ankle joint swelling [2]: (28.2%)
ankle joint swelling value [3]: 10.8 ± 1.5 mm
inhibition rate of ankle joint swelling [3]: (31.6%)
ankle joint swelling value [4]: 11.1 ± 1.6 mm
inhibition rate of ankle joint swelling [4]: (39.7%)
ankle joint swelling value [5]: 11.4 ± 1.8 mm
inhibition rate of ankle joint swelling [5]: (37.4%)
ankle joint swelling value [6]: 10.8 ± 1.7 mm
inhibition rate of ankle joint swelling [6]: (38.3%)
ankle joint swelling value [7]: 10.4 ± 1.8 mm
inhibition rate of ankle joint swelling [7]: (37.7%)
ankle joint swelling value [8]: 9.5 ± 1.9 mm
inhibition rate of ankle joint swelling [8]: (39.9%)
Lesion scoring ( X ± SD), joint lesion severity (high dose group (174 μg/kg·d s.c.)): 3.60 ± 1.26
inhibition rate to the joint swelling (high dose group (174 μg/kg·d)): ~40%
joint swelling compared with rats of the model group (high, medium and low dose groups, observation): significantly reduced joint swelling
skin ulcer symptom (high, medium and low dose groups, part of model rats had skin ulcers on the 24th day): did not have skin ulcer symptom
ankle joint swelling value [9]: 9.3 ± 1.4 mm
inhibition rate of ankle joint swelling [9]: (9.7%)
ankle joint swelling value [10]: 13.5 ± 2.1 mm
inhibition rate of ankle joint swelling [10]: (4.9%)
ankle joint swelling value [11]: 13.9 ± 1.6 mm
inhibition rate of ankle joint swelling [11]: (12.0%)
ankle joint swelling value [12]: 14.2 ± 1.7 mm
inhibition rate of ankle joint swelling [12]: (22.8%)
ankle joint swelling value [13]: 14.6 ± 2.3 mm
inhibition rate of ankle joint swelling [13]: (19.8%)
ankle joint swelling value [14]: 14.2 ± 1.4 mm
inhibition rate of ankle joint swelling [14]: (18.8%)
ankle joint swelling value [15]: 14.0 ± 1.8 mm
inhibition rate of ankle joint swelling [15]: (16.2%)
ankle joint swelling value [16]: 13.8 ± 1.5 mm
inhibition rate of ankle joint swelling [16]: (12.6%)
Lesion scoring ( X ± SD), joint lesion severity (low dose group (43.5 μg/kg·d s.c.)): 4.10 ± 0.99
ankle joint swelling value [17]: 8.9 ± 1.6 mm
inhibition rate of ankle joint swelling [17]: (13.6%)
ankle joint swelling value [18]: 11.9 ± 1.8 mm
inhibition rate of ankle joint swelling [18]: (16.2%)
ankle joint swelling value [19]: 12.1 ± 2.3 mm
inhibition rate of ankle joint swelling [19]: (23.4%)
ankle joint swelling value [20]: 12.9 ± 1.8 mm
inhibition rate of ankle joint swelling [20]: (29.9%)
ankle joint swelling value [21]: 13.2 ± 1.4 mm
inhibition rate of ankle joint swelling [21]: (27.5%)
ankle joint swelling value [22]: 13.0 ± 1.8 mm
inhibition rate of ankle joint swelling [22]: (25.7%)
ankle joint swelling value [23]: 12.8 ± 1.6 mm
inhibition rate of ankle joint swelling [23]: (23.4%)
ankle joint swelling value [24]: 12.5 ± 1.8 mm
inhibition rate of ankle joint swelling [24]: (20.9%)
Lesion scoring ( X ± SD), joint lesion severity (medium dose group (87 μg/kg·d s.c.)): 4.00 ± 0.67
